Measurements as given in patent US10710964B2, “Organic electrolyte compounds for redox-flow batteries” (FUNDACIÓN CENTRO DE INVESTIGACIÓN COOPERATIVA DE ENERGÍAS …, priority 2015, dated 2020).
≈ marks a conversion by molar mass, not a printed value. Values belong to the compound of their own block, whether it stands above or below them.

What was measured:
Format in all cases: physicochemical
[1] = Solubility studies (maximum concentration in aqueous media); details: for solubility: 0.1 M HClO4, room temperature; for solubility (concentration values): medium not given
Procedure: These were conducted in glass vials of 25 ml volume in which the organic electrolyte compound mass ranging between 15-30 mg approximately was dissolved in DI-H2O and also in the different supporting electrolytes. The procedure was performed in the following steps: after the addition of the solid, a small volume (usually starting from 25 μl) was added by using a micropipette, the suspension was vigorously shaken by hand until complete homogenization of the media in the whole vial (bottom part and walls) was observed. After that, the vials are left standing overnight. The day after, possible precipitation at the bottom of the vial was evaluated. If some solid appeared, the addition of more volume of solvent and/or supporting electrolyte was continued until the solid disappeared completely. […] The final concentration value was only calculated for those samples showing a stable solution after several weeks.

[2] = Experimental density of the electrolyte solutions
Source text: Considering the two electron-proton process taking place in the present redox molecules, for a constant amount of grams of salt the optimization of the final concentration will be a balance between the molecular weight and the packing density of the organic compounds in the electrolyte solution. Highest concentration values and subsequently of chemical-electrical energy density stored in the present systems would be achieved as higher the packing density and lower the molecular weight of the molecule. The experimental density of the present solutions containing the redox neutral salts were measured. Densities of 1.04 g/ml, 1.00 g/ml and 0.95 g/ml were measured for solutions 1.23 M of Alizarine SH in H2O, 1.17 M of Alizarine SH in H2O and 1.46 M of Alizarine SH in 0.1 M HClO4 respectively.

[3] = Cyclic voltammetry in cavity micro-electrode, three-electrode cell; details: for shift of redox potential on sulphonation, lower oxidation state / shift of redox potential on sulphonation, upper oxidation state: 0.1 M HClO4, sulphonated form in comparison to the parent molecule
Procedure: Attenuated Total Reflectance-Fourier Transform InfraRed (ATR-FTIR) spectra were recorded on Vertex 70 spectrometer (Bruker) in the range of wavelength of 4000-400 cm^−1. Differential Scanning Calorimetry measurements (DSC) were carried out on a TA Instruments Q2000 model in a sealed Al pan at a heating rate of 5° C. min^−1 in the temperature range between −80° C. and 100° C. The cyclic voltammetry measurements were performed in a cavity micro-electrode (CME) with an electrochemical interface area around a fraction of mm^2 and ohmic drop coming from the bulk of the electrolyte that can be neglected, allowing the use of high scan rates [C. Cachet-Vivier et al.; Electrochim. Acta 47, 181-189 (2001)]. The samples were studied electrochemically by using a three-electrode configuration cell in DI-H2O and the different supporting electrolytes with a platinum wire as counter electrode and Ag/AgCl or Hg/HgO as reference electrode depending of the acidic or basic pH of the media respectively.
The microcavity was filled with a homogenous mixture of active material (50 wt %) and carbon super C-65 (50 wt %) by applying pressure against an agate mortar. The cavity was cleaned by immersing the electrode in ethanol in an ultrasonic bath between experiments. For the CME, scan rates approximately an order of magnitude larger could be used without distortion usually seen in conventional cells [R. Lin et al., J. Electrochem. Soc. 1, A7-A12 (2009)]. All the experiments using CME were made three times for the same sample to check reliability. […] Cyclic voltammetry experiments were done from 10 mV/s to 1 V/s using a multichannel potentiostat/galvanostat (VMP3, Biologic). In order to make a direct comparison between the different samples, all current values were normalized to current values measured in the pure capacitive behavior region.

[4] = aqueous BR buffer at pH=7, room temperature
[5] = pure/neat DI-H2O, room temperature
[6] = vs. Ag/AgCl ref. electrode, BR buffer pH=7

SMILES: O=C1c2ccccc2C(=O)c2c1cc(S(=O)(=O)O)c(O)c2O [Alizarin S. Red-H^+]
solubility [1]: ~1500 mM (≈ 480 mg/mL)
solubility (concentration values) [1]: 1600 mM (≈ 512 mg/mL)
density of solution ([2]; 1.17 M solution in H2O): 1.00 g/mL
density of solution ([2]; 1.23 M solution in H2O): 1.04 g/mL
density of solution ([2]; 1.46 M solution in 0.1 M HClO4): 0.95 g/mL

SMILES: O=C1c2ccccc2C(=O)c2c1cc(S(=O)(=O)[O-])c(O)c2O.OC[P+](CO)(CO)CO [Alizarin S. Red-TKMP]
solubility [1]: ~1500 mM
solubility (concentration values) [1]: 1600 mM

solubility (highest concentration) [1, 4]: ~400 mM (≈ 169 mg/mL)
solubility (highest concentration) [1, 5]: ~600 mM (≈ 253 mg/mL)
separation of the pair of reversible reduction peaks ([3]; BR buffer pH=3): ~0.75 V
peak separation of the two redox peaks ([3]; BR buffer pH=7): ~1 V
separation of both peaks ([3]; BR buffer pH=9, stabilized at cycle 10): ~0.8 V
anodic shift in DI-H2O relative to BR buffer pH=7 ([3]; DI-H2O, pH ~6): ~170 mV
peak separation of the two redox peaks ([3]; neat DI-H2O): ~1 V
SMILES: O=C1/C(=C2\Nc3ccc(S(=O)(=O)O)cc3C2=O)Nc2ccc(S(=O)(=O)O)cc21 [Indigo Carmine-H^+]

SMILES: O=C1C(=C2Nc3ccc(S(=O)(=O)[O-])cc3C2=O)Nc2ccc(S(=O)(=O)[O-])cc21.[Na+].[Na+] [Indigo Carmine-Na^+, 3,3′-dioxo-2,2′-bis-indolyden-5,5′-disulfonic acid disodium salt]
anodic shift of both pairs of peaks relative to Indigo ([3]; BR buffer pH=7): approximately 80 mV

solubility (highest concentration) [1, 4]: up to 0.76 M
solubility (concentration values) [1]: up to 0.76 M
solubility (highest concentration) [1, 5]: up to 0.76 M
peak separation of the two redox peaks ([3]; BR buffer pH=7): 1 V
SMILES: O=C1/C(=C2\Nc3ccc(S(=O)(=O)[O-])cc3C2=O)Nc2ccc(S(=O)(=O)[O-])cc21.OCC[N+](CCO)(CCO)CCO.OCC[N+](CCO)(CCO)CCO [Indigo Carmine-TKEN]

SMILES: O=C1C(=C2Nc3ccc(S(=O)(=O)[O-])cc3C2=O)Nc2ccc(S(=O)(=O)[O-])cc21.OC[P+](CO)(CO)CO.OC[P+](CO)(CO)CO [Indigo Carmine-TKMP]
peak separation of the two redox peaks ([3]; BR buffer pH=7): 1 V

reduction peak at negative potential [3, 6]: −0.44 V
reduction peak at positive potential [3, 6]: 0.31 V
SMILES: O=C1/C(=C2\Nc3ccccc3C2=O)Nc2ccccc21 [Indigo, 2,2′-Bis(2,3-dihydro-3-oxoindolylidene), reference compound]

SMILES: O=C1c2ccccc2C(=O)c2c1ccc(O)c2O [alizarin, 1,2-dihydroxy-9,10-anthraquinone, reference compound]
shift of redox potential on sulphonation, lower oxidation state [3]: ~50 mV
shift of redox potential on sulphonation, upper oxidation state [3]: ~35 mV

shift of redox potential on sulphonation, lower oxidation state [3]: ~100 mV
shift of redox potential on sulphonation, upper oxidation state [3]: ~15 mV
SMILES: O=C1c2ccccc2C(=O)c2c(O)ccc(O)c21 [quinizarin, 1,4-dihydroxy-9,10-anthraquinone, reference compound]
